These results are taken from patent publication US11419902B2, “Compositions comprising bacterial strains” (4D Pharma Research Limited, priority 2018, dated 2022).

Series [1] relates to PBMCs. Put plainly: Basic cell phenotyping on PBMCs from healthy donors (flow cytometry). In kind it is cell-based. The procedure:
Frozen healthy human PBMCs were purchased from Stem Cells Technologies (Cambridge UK). Briefly cells were thaw and left to rest overnight in full growth media (RPMI 1640 with 10% FBS, 2 mM L. Glutamine, 55 μM 2-Mercapoethanol and 100 U/ml penicillin, 100 μg/ml streptomycin) in CO2 incubator at 37° C. For the experiment cells were plated at a density of 750,000 Cell/well in 48 well plates and treated in full growth media with 10% bacteria supernatants in the presence or absence of 1 ng/ml LPS. Cell culture media was added to untreated wells. Cells were left to rest for 72 h, thereafter cell free supernatants were collected and spun down for 3 minutes at 10,000 g at 4° C. Samples were stored at −80° C. for cytokine analysis.
1.5×10^6 cells per sample were stained with viability fixable dye (Miltenyi) to discriminate between live and dead cells for 10 min at RT. Afterwards the cells were stained with the cocktail of antibodies listed below (Miltenyi) for basic immunophenotyping (CD3/CD4/CD8/CD25/CD127 and CD19) and incubated for 10 min at RT.
Experiments were carried out to measure the percentage of the following cell populations: • CD4+CD3+ cells (markers of CD4 T-helper cells) • CD4+CD25+ cells (markers of CD4+ activated cells) • CD25++[…] cells out of the CD4+ cell population (markers of Tregs cells) • CD8+CD3+ cells (markers of cytotoxic T cells) • CD25+CD8+ cells (markers of CD8+ activated cells) • CD19+CD3− cells (markers of B cells).
The ratio of CD8+/Tregs and the ratio of activated CD8/Treg cells were determined.
Flow cytometry analysis of different cell populations 1.5×10^6 cells per sample were stained with viability fixable dye (Miltenyi) to discriminate between live and dead cells for 10 min at RT. Afterwards the cells were stained with the cocktail of antibodies listed below (Miltenyi) for basic immunophenotyping (CD3/CD4/CD8/CD25/CD127 and CD19) and incubated for 10 min at RT. Cells were then washed and resuspended in PBS and immediately analysed using a FACS Aria II equipped with Blue (488 nm), Red (633 nm) and Violet (405 nm) lasers. FMOs were included throughout all the experiments. For the analysis Flowjo version 10.4.2 software (FlowJo, LLC) was used.
Background: In flow cytometry, cells or beads pass a laser one at a time.

Series [2] deals with colon. Kind of series: Intestinal permeability assay (Ussing chambers). In kind it is in vivo. The following applies: colon of mice fed with MRx0029. The procedure:
Animals were allowed to habituate to their holding room for one week after arrival into the animal unit. They receive oral gavage (200 μL dose) of live biotherapeutics at a dose of 1×10^9 CFU for 6 consecutive days between 15:00 and 17:00. On day 7, the animals are decapitated, and tissues are harvested for experimentation. Animals were sacrificed in a random fashion regarding treatment and testing condition; sampling occurred between 9.00 a.m. and 2:30 p.m. Trunk blood was collected in potassium EDTA (Ethylene Diamine Tetra Acetic Acid) tubes and spun for 15 min at 4000 g. Plasma was isolated and stored at −80° C. for further analysis. The brain was quickly excised, dissected and each brain region was snap-frozen on dry ice and stored at −80° C. for further analysis. Spleen was removed, collected in 5 mL RPMI media (with L-glutamine and sodium bicarbonate, R8758 Sigma+10% FBS (F7524, Sigma)+1% Pen/Strep (P4333, Sigma)) and processed immediately after culls for ex-vivo immune stimulation. Intestinal tissue (2 3 cm segments of ileum and colon closest to the caecum were excised, and the furthest 1 cm 2 cm of tissue from the caecum were used) were mounted into the Ussing chambers for intestinal permeability assay. The caecum was removed, weighted and stored at −80° C. for SCFAs analysis.

Series [3] has as its system IL-8. Put plainly: IL-8 secretion in HMC3 cells (ELISA). The following applies: 10% cell-free supernatant 24 h, in the absence of stimulation (no TNF-α). In kind it is cell-based, Human. The procedure:
Human microglia HMC3 cells were grown in glutamine-supplemented EMEM media containing 15% heat inactivated FBS and 100 U/ml penicillin and 100 μg/ml streptomycin. HMC3 cells were plated in 24 well plates at a density of 50,000 cells/well. Cells were left in CO2 incubator to rest for 48 h. The cells were then washed in blank EMEM and pre-treated in 2% FBS growth media with 10 ng/ml TNF-α for 1 h. Thereafter 10% cell-free bacterial supernatants for NCIMB 42787 stationary growth cultures (isolated as described above) were added to TNF-α-treated and untreated wells and incubated in CO2 incubator at 37° C. for 24 h. Cell-free supernatants were collected and centrifugated at 10,000×g for 3 min and 4° C. Samples were aliquoted in 1.5 ml microtubes and stored in −80° C. for hIL-8 ELISA.
Secretion of IL-8 was analysed using hIL-8 Standard ELISA Kits, according to the manufacturer's protocol in the cell-free supernatants from HMC3 cells treated as described above. Samples were measured at 405 nm with correction wavelength set at 655 nm on a microplate reader (iMark, Bio-Rad). Raw data were plotted and analysed using GraphPad Prism 7 software.
(ELISA stands for enzyme-linked immunosorbent assay.)

Series [4] relates to NF-κB-Ap1 promoter. Put plainly: NF-κB promoter activation in HEK-TLR4 reporter cells (SEAP). In kind it is cell-based, human. The following applies: 10% supernatant 22 h, on its own (without LPS). The procedure:
HEK293-Blue reporter cells stably expressing human TLR4 (HEK-TLR4), were cultured according to the manufacturer's instructions. Briefly, HEK-TLR4 cells were maintained in DMEM 4.5 g/L D-glucose supplemented with 10% (v/v) heat-inactivated FBS, 4 mM L-Glutamine, 100 U/ml penicillin, 100 μg/ml streptomycin, 100 μg/ml normocin, 1×HEK-Blue selection media.
Briefly, cells were washed with PBS, dissociated in PBS and collected in growth media. Cells were plated in 96-well plates at a density of 25,000 cells/well. To evaluate the effect of bacteria strains on LPS inducing NF-κB promoter activation, cells were treated with 10 ng/ml LPS in presence or absence of 10% supernatants (isolated as described above) and incubated in a CO2 incubator. Treatments proceeded for 22 h at 37° C. and 5% CO2, after which the detection of Secreted Embryonic Alkaline Phosphatase (SEAP) activity from cell culture supernatant was performed using QUANTI-blue solution according to manufacturer's instructions. Briefly, 20 μl of cell-free supernatant was collected and analysed for the presence of SEAP by mixing with 200 μl of sterile-filtered QUANTI-Blue detection media. After 2 h incubation at 37° C., optical density was measured at 655 nm on a microplate reader (iMark microplate, Bio-Rad).

Megasphaera massiliensis MRx0029: in series [1] (10% bacteria supernatant, 72 h), the “percentage of B cells” value is recorded as “did not significantly change”, the “percentage of CD4+ activated cells” value is “did not significantly change”, the “percentage of CD4 T-helper cells” value is listed as “did not significantly change” and the “percentage of CD8+ activated cells” value was “did not significantly change”. In addition, in series [1] (10% bacteria supernatant, 72 h), the “percentage of CD25++CD17− cells (Tregs)” value was “selectively reduced the percentage of Tregs” and the “percentage of cytotoxic T cells” value is recorded as “did not significantly change”. Further, in series [1] (vs untreated cells), the “ratio of CD8+/Tregs” value is recorded as “increased the ratio of CD8+/Tregs” and the “ratio of activated CD8/Treg cells” value was “increased”. Also, the “permeability function in the colon” value in series [2] was “decrease the permeability function”. Also, the IL-8 secretion result in series [3] was “induces IL-8 secretion”. Also, the NF-κB-Ap1 promoter activation result in series [4] is “induced NF-κB-Ap1 promoter activation”.
